Read-outs that look alike come from different tables or passages of the source.
Columns and labels:
Assay in all cases: Glasshouse assay for herbicidal activity (pre- and post-emergence), percentage phytotoxicity
Assay type in all cases: in vivo
[1] = system: Alopecurus myosuroides (ALOMY); conditions: Alopecurus myosuroides, 250 g/ha, visual assessment (100%=total damage, 0%=no damage)
Procedure, shortened: (§1)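 Potted test plants in standard soil received the compound pre-emergence (day 1) or post-emergence (about day 12). Evaluation: visual damage score from 0% (none) to 100% (total), 15 days after application post-emergence, 20 days pre-emergence.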

[2] = system: Avena fatua (AVEFA); conditions: Avena fatua, 250 g/ha, visual assessment (100%=total damage, 0%=no damage)
Procedure, shortened: as §1

[3] = system: Echinochloa crus-galli (ECHCG); conditions: Echinochloa crus-galli, 250 g/ha, visual assessment (100%=total damage, 0%=no damage)
Procedure, shortened: as §1

[4] = system: Lolium perenne (LOLPE); conditions: Lolium perenne, 250 g/ha, visual assessment (100%=total damage, 0%=no damage)
Procedure, shortened: as §1

[5] = post-emergence, 360 h, post-emergence, 15 DAA, read-out: Post-emergence herbicidal activity (percentage phytotoxicity) ALOMY POST
[6] = pre-emergence, 480 h, pre-emergence, 20 DAA, read-out: Pre-emergence herbicidal activity (percentage phytotoxicity) ALOMY PRE
[7] = post-emergence, 360 h, post-emergence, 15 DAA, read-out: Post-emergence herbicidal activity (percentage phytotoxicity) AVEFA POST
[8] = pre-emergence, 480 h, pre-emergence, 20 DAA, read-out: Pre-emergence herbicidal activity (percentage phytotoxicity) AVEFA PRE
[9] = post-emergence, 360 h, post-emergence, 15 DAA, read-out: Post-emergence herbicidal activity (percentage phytotoxicity) ECHCG POST
[10] = pre-emergence, 480 h, pre-emergence, 20 DAA, read-out: Pre-emergence herbicidal activity (percentage phytotoxicity) ECHCG PRE
[11] = post-emergence, 360 h, post-emergence, 15 DAA, read-out: Post-emergence herbicidal activity (percentage phytotoxicity) LOLPE POST
[12] = pre-emergence, 480 h, pre-emergence, 20 DAA, read-out: Pre-emergence herbicidal activity (percentage phytotoxicity) LOLPE PRE

Row | SMILES | pest or weed control at 250 g/ha [1, 5] [%] | pest or weed control at 250 g/ha [1, 6] [%] | pest or weed control at 250 g/ha [2, 7] [%] | pest or weed control at 250 g/ha [2, 8] [%] | pest or weed control at 250 g/ha [3, 9] [%] | pest or weed control at 250 g/ha [3, 10] [%] | pest or weed control at 250 g/ha [4, 11] [%] | pest or weed control at 250 g/ha [4, 12] [%]
1 | Cc1cc(-c2ccc(C#N)cn2)cc(C)c1C1C(=O)CC(CC(=O)NC(C)(C)C)C1=O (stereo not drawn) [Compound B75] | 100 | 100 | 100 | 90 | 100 | 100 | 100 | 90
2 | Cc1cc(C)c(C2C(=O)CC(CC(=O)NCC(CF)CF)C2=O)c(C)c1 (stereo not drawn) [Compound B76] | 80 | 90 | 80 | 70 | 80 | 90 | 80 | 90
3 | Cc1cc(-c2ncc(F)cc2F)cc(C)c1C1C(=O)CC(CC(=O)NCC2CC2(Cl)Cl)C1=O (stereo not drawn) [Compound B77] | 100 | 90 | 100 | 90 | 100 | 100 | 100 | 100
4 | Cc1cc(C)c(C2C(=O)CC(CC(=O)NC3(C4CC4)CC3)C2=O)c(C)c1 (stereo not drawn) [Compound B78] | 80 | 80 | 80 | 40 | 90 | 90 | 80 | 90
5 | CCCN(CC1CC1)C(=O)CC1CC(=O)C(c2c(C)cc(C)cc2C)C1=O (stereo not drawn) [Compound B79] | 60 | 60 | 10 | 0 | 60 | 80 | 80 | 80
6 | Cc1cc(C)c(C2C(=O)CC(CC(=O)N(C)C(C)(C)C)C2=O)c(C)c1 (stereo not drawn) [Compound B80] | 80 | 90 | 60 | 0 | 90 | 90 | 90 | 100
7 | Cc1cc(C)c(C2C(=O)CC(CC(=O)N[C@@H]3C[C@@H]3F)C2=O)c(C)c1 (stereo partly drawn) [Compound B81] | 80 | 70 | 90 | 0 | 80 | 90 | 90 | 90
8 | Cc1cc(C)c(C2C(=O)CC(CC(=O)NCC3(C)CC3(Cl)Cl)C2=O)c(C)c1 (stereo not drawn) [Compound B82] | 70 | 70 | 60 | 40 | 50 | 90 | 70 | 80
9 | Cc1cc(-c2ncc(C#N)cc2Cl)cc(C)c1C1C(=O)CC(CC(=O)NC(C)(C)C)C1=O (stereo not drawn) [Compound B83] | 70 | 80 | 80 | 30 | 90 | 90 | 80 | 80
10 | Cc1cc(-c2ncccc2F)cc(C)c1C1C(=O)CC(CC(=O)NC(C)(C)C)C1=O (stereo not drawn) [Compound B84] | 100 | 90 | 100 | 80 | 100 | 100 | 100 | 100
11 | Cc1cc(-c2ncc(C#N)cc2F)cc(C)c1C1C(=O)CC(CC(=O)NC(C)(C)C)C1=O (stereo not drawn) [Compound B85] | 70 | 70 | 50 | 10 | 100 | 20 | 80 | 70
12 | C#Cc1cccc(CNC(=O)CC2CC(=O)C(c3c(C)cc(C)cc3C)C2=O)c1 (stereo not drawn) [Compound B86] | 70 | 70 | 100 | 60 | 90 | 80 | 100 | 90
13 | Cc1cc(-c2ncc(F)cc2C#N)cc(C)c1C1C(=O)CC(CC(=O)NC(C)(C)C)C1=O (stereo not drawn) [Compound B87] | 70 | 40 | 30 | 10 | 80 | 20 | 80 | 70
14 | Cc1cc(-c2ncc(F)cc2F)cc(C)c1C1C(=O)CC(CC(=O)NCc2cccc(C(F)(F)F)c2)C1=O (stereo not drawn) [Compound B88] | 100 | 90 | 100 | 70 | 100 | 90 | 100 | 90
15 | Cc1cc(-c2ncc(F)cc2F)cc(C)c1C1C(=O)CC(CC(=O)NCc2ccc(C(F)(F)F)cc2)C1=O (stereo not drawn) [Compound B89] | 100 | 90 | 100 | 60 | 100 | 100 | 100 | 90
16 | Cc1cc(-c2ncc(F)cc2F)cc(C)c1C1C(=O)CC(CC(=O)NCc2cccc(Br)c2)C1=O (stereo not drawn) [Compound B90] | 100 | 90 | 100 | 70 | 100 | 100 | 100 | 100
17 | COc1ccc(CNC(=O)CC2CC(=O)C(c3c(C)cc(-c4ncc(F)cc4F)cc3C)C2=O)cc1 (stereo not drawn) [Compound B91] | 100 | 80 | 100 | 70 | 100 | 80 | 100 | 90
18 | C=C(F)CNC(=O)CC1CC(=O)C(c2c(C)cc(C)cc2C)C1=O (stereo not drawn) [Compound B92] | 90 | 90 | 80 | 30 | 80 | 90 | 90 | 100
19 | Cc1cc(-c2ncc(Cl)cc2F)cc(C)c1C1C(=O)CC(CC(=O)N2CCOCC2)C1=O (stereo not drawn) [Compound B93] | 100 | 80 | 100 | 70 | 100 | 100 | 100 | 90
20 | C=C(C)CNC(=O)CC1CC(=O)C(c2c(C)cc(-c3ncc(Cl)cc3F)cc2C)C1=O (stereo not drawn) [Compound B94] | 100 | 100 | 100 | 90 | 100 | 100 | 100 | 100
21 | Cc1cc(-c2ncc(Cl)cc2F)cc(C)c1C1C(=O)CC(CC(=O)NCCF)C1=O (stereo not drawn) [Compound B95] | 100 | 100 | 100 | 100 | 100 | 100 | 100 | 100

Reference: patent publication US10206394B2, “Herbicidal compounds” (Syngenta Participations AG, priority 2014, dated 2019)
